Source: patent US7560453B2, “6-(2, 3, 4, 5-tetrahydro-1H-benzo [D] azepin-7-yloxy) -nicotamide derivatives as radio labelled ligands” (Glaxo Group Limited, priority 2005, dated 2009)
One block for each compound: values may come before it.

How the values were obtained:
histamine H3 receptor [1] = experiment: PET imaging with Compound A in pig brain; format: in vivo
Method: The animals (pig, Yorkshire/Danish Landrace (˜40 Kg; n=2) were housed singly in thermostatically controlled (20° C.) and naturally illuminated stalls. They were scanned under terminal anaesthesia (ketamine induced isoflurane anaesthesia) on different days. The left femoral artery and vein of each animal were surgically cannulated using catheters (Avanti® size 4F-7F). Blood samples were collected from the femoral artery and the radiolabelled and non-labelled agents were injected to the femoral vein. Animals were placed supine in a Siemens ECAT EXACT HR tomograph, with the head immobilized in a custom-made holding device. During the study, blood pH, pCO2 and pO2 levels were monitored and maintained within the normal physiological range. In addition, BP and heart rate were recorded throughout the study. Compound A was administered intravenously in the femoral vein as a 1 minute bolus injection. PET scanning and arterial blood sampling was commenced upon start of the radioligand administration.

histamine H3 receptors = conditions: prior art radioligands; cited from earlier work
histamine H3 receptor [2] = experiment: PET imaging with pharmacological challenges (blocking of Compound A uptake); format: in vivo, pig
Method: Four sequential high specific activity iv radioligand Compound A administrations were performed in same animal, same day. Following a baseline scan, Compound A was co-administered with escalating dose of unlabelled unlabelled compound A (0.005, 0.05 and 0.5 mg/kg). [^15O]CO and [^15O]H2O were administered pre and post administration of unlabelled compound A to monitor and to correct for changes in cerebral blood volume and changes in cerebral blood flow. […] A similar experiment was performed using escalating dose of ciproxifan (0.006, 0.06, 0.6 and 2.0 mg/kg), a known selective histamine H3 antagonist.

[3] = biological target: T1, human histamine H3 receptor (Homo sapiens, UniProt Q9Y5N1); experiment: Competition binding assay using [125I]iodoproxifan, cell lines stably expressing human histamine H3 receptor
T1 construct: expressed in transfected cells
T1 sequence (Q9Y5N1 whole entry): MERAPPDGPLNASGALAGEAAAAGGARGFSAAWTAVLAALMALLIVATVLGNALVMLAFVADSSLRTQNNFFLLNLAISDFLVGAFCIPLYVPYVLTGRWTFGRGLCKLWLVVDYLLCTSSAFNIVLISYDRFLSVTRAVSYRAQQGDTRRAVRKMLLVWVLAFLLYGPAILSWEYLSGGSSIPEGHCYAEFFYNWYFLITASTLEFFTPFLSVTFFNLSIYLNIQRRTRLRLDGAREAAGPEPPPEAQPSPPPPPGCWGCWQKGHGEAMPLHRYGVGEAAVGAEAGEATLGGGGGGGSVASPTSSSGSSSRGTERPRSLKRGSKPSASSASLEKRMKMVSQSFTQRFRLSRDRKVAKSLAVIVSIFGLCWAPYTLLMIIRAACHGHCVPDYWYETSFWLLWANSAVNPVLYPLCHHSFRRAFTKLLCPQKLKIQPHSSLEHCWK
Method: The in vitro affinity of unlabelled Compound A for the histamine H3 receptor was determined by competition assay using [^125I]iodoproxifan as radioligand binding to cell lines stably expressing human histamine H3 receptor.^13

Human receptor H4 = Human receptor H4 (Homo sapiens, UniProt Q9H3N8); experiment: Binding affinity, human H4 receptor; conditions: read-out: Binding affinity (pKi), human H4 (converted)
Human receptor H1 = Human receptor H1 (Homo sapiens, UniProt P35367); experiment: Binding affinity, human H1 receptor; conditions: read-out: Binding affinity (pKi), human H1 (converted)
Human receptor H1, sequence (P35367 whole entry): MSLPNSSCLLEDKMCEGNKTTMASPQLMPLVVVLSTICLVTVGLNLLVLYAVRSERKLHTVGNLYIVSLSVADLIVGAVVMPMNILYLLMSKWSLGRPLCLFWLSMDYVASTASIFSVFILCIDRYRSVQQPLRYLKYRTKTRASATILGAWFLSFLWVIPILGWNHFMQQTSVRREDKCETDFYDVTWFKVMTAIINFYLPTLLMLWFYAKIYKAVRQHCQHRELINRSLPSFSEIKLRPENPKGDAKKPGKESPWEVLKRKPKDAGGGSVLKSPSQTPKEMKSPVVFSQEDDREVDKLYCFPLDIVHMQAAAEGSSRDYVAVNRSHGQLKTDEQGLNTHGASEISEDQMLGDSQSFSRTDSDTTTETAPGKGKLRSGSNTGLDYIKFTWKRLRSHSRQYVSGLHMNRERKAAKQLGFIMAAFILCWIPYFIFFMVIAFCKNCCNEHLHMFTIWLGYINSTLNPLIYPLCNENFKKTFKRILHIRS

Human receptor H2 = Human receptor H2 (Homo sapiens, UniProt P25021); experiment: Binding affinity, human H2 receptor; conditions: read-out: Binding affinity (pKi), human H2 (converted)
Human receptor H2, sequence (P25021 whole entry): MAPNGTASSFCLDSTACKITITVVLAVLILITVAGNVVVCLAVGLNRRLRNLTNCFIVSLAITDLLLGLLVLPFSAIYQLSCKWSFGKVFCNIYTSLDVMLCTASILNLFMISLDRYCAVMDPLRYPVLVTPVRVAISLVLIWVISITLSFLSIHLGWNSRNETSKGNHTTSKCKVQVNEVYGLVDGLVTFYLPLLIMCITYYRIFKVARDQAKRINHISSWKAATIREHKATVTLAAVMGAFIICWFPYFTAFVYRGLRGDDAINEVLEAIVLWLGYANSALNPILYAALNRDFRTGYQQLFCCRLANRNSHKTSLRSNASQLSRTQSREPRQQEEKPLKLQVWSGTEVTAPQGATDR

[4] = 2.0 mg/kg ciproxifan, 85 min post-injection

- Concentration in cerebellum (histamine H3 receptor [1]): low
- Ratio relative to cerebellum, frontal cortex (histamine H3 receptor [1]; 85 min, baseline): 5.3
- Ratio relative to cerebellum, occipital cortex (histamine H3 receptor [1]; 85 min, baseline): 3.8
- Ratio relative to cerebellum, parietal cortex (histamine H3 receptor [1]; 85 min, baseline): 4.9
- Ratio relative to cerebellum, striatum (histamine H3 receptor [1]; 85 min, baseline): 9.0
- Ratio relative to cerebellum, thalamus (histamine H3 receptor [1]; 85 min, baseline): 3.4
- Time of peak brain uptake of radioactivity (histamine H3 receptor [1]; after administration of the radiotracer): 25 min
- Brain entry (histamine H3 receptor [1]; iv 1 minute bolus): readily enters the pig brain
SMILES: [11CH3]NC(=O)c1ccc(Oc2ccc3c(c2)CCN(C2CCC2)CC3)nc1 [Compound A, [^11C-N-methyl]-6-(3-cyclobutyl-2,3,4,5-tetrahydro-1H-benzo[d]azepin-7-yloxy)-nicotamide]
- Regional brain distribution (histamine H3 receptor [1]; higher accumulation in striatum, cortices, thalamus, hypothalamus): reflected the known distribution of the histamine H3 receptor

SMILES: [123I]c1ccc(COCCCc2cnc[nH]2)cc1 [[^123I]iodoproxifan]
- Alteration of brain distribution by selective H3 receptor ligand (histamine H3 receptors): no significant alteration of the brain distribution by selective H3 receptor ligand

SMILES: O=C(c1ccc(OCCCc2cnc[nH]2)cc1)C1CC1 [ciproxifan]
- Ratio tissue to cerebellum of Compound A, frontal cortex (histamine H3 receptor [2]; [4]): 1.08
- Ratio tissue to cerebellum of Compound A, occipital cortex (histamine H3 receptor [2]; [4]): 0.99
- Ratio tissue to cerebellum of Compound A, parietal cortex (histamine H3 receptor [2]; [4]): 0.91
- Ratio tissue to cerebellum of Compound A, striatum (histamine H3 receptor [2]; [4]): 1.22
- Ratio tissue to cerebellum of Compound A, thalamus (histamine H3 receptor [2]; [4]): 0.72
- Effect on Compound A uptake in H3-rich brain regions (histamine H3 receptor [2]; escalating dose 0.006, 0.06, 0.6 and 2.0 mg/kg): dose-dependent decrease

- Selectivity over other receptors ([3]; H3 versus other receptors): high selective over other receptors
- Ki ([3]; [125I]iodoproxifan as radioligand, read-out: Binding affinity (pKi), human H3 (converted)): 0.257 nM
- Ki (Human receptor H4): > 3160 nM
- Ki (Human receptor H1): 2510 nM
- Ki (Human receptor H2): > 3160 nM
SMILES: CNC(=O)c1ccc(Oc2ccc3c(c2)CCN(C2CCC2)CC3)nc1 [unlabelled Compound A]
- Effect on specific uptake of radiotracer Compound A (histamine H3 receptor [2]; co-administered at 0.005, 0.05 and 0.5 mg/kg): specific uptake of radiotracer was blocked
